Test results reported in patent publication US10584127B2, “3,3-difluoropiperidine carbamate heterocyclic compounds as NR2B NMDA receptor antagonists” (Rugen Holdings (Cayman) Limited, priority 2015, dated 2020).

How the values were obtained:
[1] = system: formalin-induced nociceptive behavior; assay: Rat Formalin Model; format: in vivo; details: rat, 10, 30 and 60 mpk i.p., mesylate salt
Method: The rat formalin model is a tonic model of continuous pain resulting from formalin-induced spontaneous nociceptive behaviors. Intra-paw injection of formalin is a commonly used model to measure spontaneous nociceptive behaviors in rodents (Dubuisson, D. and Dennis, S. G. Pain 4:161, 1977). Subcutaneous plantar injection of formalin causes a bi-phasic nocifensive behavioral response in rodents. The early phase (phase-I) lasts for about 5-10 min following which an interphase occurs without any discernible nociceptive reactions after which the late phase (phase-II) nociceptive reaction ensues continuing from about 20-60 min following formalin injection. Formalin model is a model of tonic, persistent pain, and is widely used for rapid screening of novel analgesic compounds. […] In the present example, effects of test item were assessed in 0-5 minutes from the early phase (phase-I) and 20-35 minutes from the late phase (phase-II) of formalin-induced nociceptive behavior. […]
For all groups, animals were acclimated to the observation chamber for 15 minutes immediately prior to formalin injection. All animals received an intraplantar subcutaneous injection of 50 μL of 5% formalin into the left hind paw and then placed immediately into an observation chamber and formalin-evoked spontaneous nociceptive behaviors in the rats were continuously recorded for 0-60 min using a commercial camcorder. […]

[2] = system: KCl-induced cortical spreading depression; assay: Cortical spreading depression (CSD), aura phase of migraine model; format: in vivo; details: rats, mesylate salt
Method: The cortical spreading depression model is utilized to investigate whether treatment with compounds of the present invention affect electrophysiological and hemodynamic events in a rat model of migraine.
Rats were anesthetized with 5% isoflurane (in 70% N2O and 30% O2; flow 300 ml/min) and placed in a stereotactic frame. […] The rectal temperature was maintained at 37.0±1.0° C. with a homeothermic blanket system. The skin was opened by a medial incision and retracted laterally. Three burr holes were drilled under saline cooling over the right hemisphere at the following coordinates (mm from bregma): (1) posterior 4.5, lateral, 2.0 (occipital cortex): KCl application site; (2) posterior 0.5, lateral 2.0 (parietal cortex): LDF recording site; (3) anterior 2, lateral 2 (frontal cortex): DC potential recording site. A laser-Doppler flow probe (Oxyflow, Oxford Optronics, UK) to monitor CBF and an invasive Ag/AgCl electrode for measuring direct current (DC) potential shifts were placed in the parietal and frontal cortex burr holes on the intact dura and in the cortex, respectively. The laser-Doppler flow probe was positioned in an area free of large pial and dural vessels to minimize a large-vessel contribution to the signal. For the DC-potential measurement, a reference electrode was fixed in the neck. Dura overlying the occipital cortex was gently removed and care was taken to avoid bleeding. After surgical preparation, the cortex was allowed to recover for 15 minutes under saline irrigation. A cotton ball (2 mm diameter) soaked with 1M KCl was placed on the pial surface and kept moist by placing 5 μl of KCl solution every 15 minutes. Test compound or vehicle was administered ten (10) minutes prior to CSD initiation. […] The number of KCl-induced CSDs was counted for 2 hours. The CBF and DC-potentials were monitored continuously starting from 5 minutes before KCl exposure.
Test compound E1-1.2 was administered as a mesylate salt (mpk based on molecular weight of the mesylate salt).
The data was collected in Windaq acquisition software (Dataq Instruments, USA) at 20 kHz. The raw data was analyzed in Clampfit program (Axon Instruments, USA). The signals were low pass filtered (cut off range 5-10000 Hz) that CSD episodes in DC and CBF could be confirmed. The following parameters were analyzed: i) the number, duration and amplitude of DC-potentials, and ii) the number and amplitude of CBF events.
Doses were given as milligram per kilogram (mpk). […] Bars represent mean±Standard Error of Mean (SEM), and differences were considered to be statistically significant at the P<0.05 level (n=8, * different from vehicle group). Statistical analysis was performed using StatsDirect statistical software. Differences between groups were analyzed by using 1-way ANOVA and Dunnett's post hoc test.

[3] = target: CYP2D6 (Homo sapiens (Human), UniProt P10635); assay: CYP P450 enzyme inhibition, pooled human liver microsome; format: in vitro ADME; details: HLM, dextromethorphan 5 μM
Sequence of CYP2D6 (P10635 whole entry): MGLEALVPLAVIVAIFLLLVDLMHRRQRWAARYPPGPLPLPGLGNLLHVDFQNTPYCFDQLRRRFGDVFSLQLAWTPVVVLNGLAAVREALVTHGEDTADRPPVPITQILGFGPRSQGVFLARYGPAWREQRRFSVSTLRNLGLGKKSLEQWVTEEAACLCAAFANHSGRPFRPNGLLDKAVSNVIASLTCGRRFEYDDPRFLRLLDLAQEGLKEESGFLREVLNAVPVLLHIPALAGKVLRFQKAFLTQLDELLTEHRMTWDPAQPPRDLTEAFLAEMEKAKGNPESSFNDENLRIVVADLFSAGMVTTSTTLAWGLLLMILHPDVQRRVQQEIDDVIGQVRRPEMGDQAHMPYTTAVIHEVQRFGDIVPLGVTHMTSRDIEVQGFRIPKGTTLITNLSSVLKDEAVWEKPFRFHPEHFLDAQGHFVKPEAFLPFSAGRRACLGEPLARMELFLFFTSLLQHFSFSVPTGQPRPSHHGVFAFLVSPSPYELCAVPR
Method: Those CYP isoforms and their corresponding probe substrates are as follows: CYP1A2 (phenacetin, 30 μM), CYP2C9 (tolutamide, 100 μM), CYP2C19 (S-mephenytoin, 40 μM), CYP2D6 (dextromethorphan, 5 μM) and CYP3A4 (midazolam, 1 μM). All probe substrates were used at concentrations near or below their Kms. For experiment, a reaction mixture of test compound at 10 μM or in serial dilution, CYP probe substrate described above and 0.2 mg/mL pooled HLM in phosphate buffer, pH 7.4 in a final volume of 200 μL was pre-incubated at 37° C. for 10 minutes in triplicate. The reaction was initiated by addition of NADPH at final concentration of 1 mM. The reaction was terminated after 10 minutes (CYP1A2, CYP2D6 and CYP3A4) or 30 minutes (CYP2C9 and CYP2C19) by addition of 100 μL ice-cold acetonitrile with internal standard (IS). The samples were then centrifuged at 13,000 rpm and the supernatants were injected to LC-MS/MS (Agilent Technologies) to quantify the concentration of the specific metabolites of the probe substrates formed by individual CYP450 isoforms. The inhibition ratio is calculated as: (Mt−M0)/Mwater×100% in which Mt and M0 represent the concentrations of the specific probe substrate metabolite, which was formed by individual CYP450 isoform, at the beginning and end of the reaction in the presence of test compound; while Mwater represents the concentration of the specific metabolite at the end of the reaction in the absence of test compound. Test compound concentration-dependent response data experiments performed in triplicate.

## Cc1ccc(COC(=O)N2CC[C@H](CNc3nccn4cnnc34)C(F)(F)C2)cc1 [Compound E1-1.2, (+)-R-4-methylbenzyl 4-(([1,2,4]triazolo[4,3-a]pyrazin-8-ylamino)methyl)-3,3-difluoropiperidine-1-carboxylate]
[1]
  cumulative time spent on nociceptive behavior in phase I (0-5 mins): decreased
  cumulative time spent on nociceptive behavior in phase II (20-35 mins): decreased
[2]; 10 mg/kg
  number of CBF events vs vehicle: decreased
[2]; 3 mpk, 10 mpk and 30 mpk
  number of DC potentials vs vehicle group: significantly decreased
[2]
  magnitude of CBF vs vehicle: unchanged
[2]; various doses
  amplitude of DC potentials vs vehicle: not statistically different
  duration of DC potentials vs vehicle: not statistically different
[3]
  CYP2D6 @ 10 μM (%): 14%
